Reference: patent US20110294736A1, “COMPOUNDS AND METHODS FOR THE TREATMENT OF AUTOIMMUNE AND INFLAMMATORY DISEASE” (THE PROVOST, FELLOWS AND SCHOLARS OF THE HOLY AND UNDIVIDED …, priority 2008, published 2011)

Experiments:
[1] = test system: MOG-specific IL-17, IFN-γ and TNF-α response of lymph node cells; experiment: MOG-specific cytokines (ELISA) of restimulated lymph node cells after EAE induction; type: in vivo, mice; conditions: lymph node cells day 5
Experimental: EAE was induced in C57BL/6 mice by s.c injection with 150 μg of MOG35-55 in CFA supplemented with 4 mg/ml H37 Ra M. tuberculosis on day 0. All mice were injected i.p with PT on days 0 and 2. One group of mice were untreated, the second group were given 100 μg Tri-DAP 6 hours before immunization and a third group were given Tri-DAP (100 μg/mouse) on day 0 in MOG/CFA emulsion and again on days 1, 2 and 4. Mice were sacrificed on day 5 and lymph nodes cells were stimulated with MOG peptide (Myelin oligodendrocyte glycoprotein) (20-100 μg/ml) or as negative and positive controls, medium only or PMA and anti-CD3 respectively. After 72 hours supernatants were removed and analyzed for IL-17, TNF-α (TNF-alpha) and IFN-γ (interferon gamma) by ELISA.

BMDC = experiment: IL-12p40, IL-23, IL-12p70 and IL-10 ELISA in BMDC with p38 or ERK inhibitor, Tri-DAP and LPS or CpG; type: cell-based, murine
Experimental: BMDC (1×10^6) were pretreated with the p38 inhibitor, SB203580 (5 μM—FIGS. 10-11), or the ERK inhibitor UO126 (5 μM—FIGS. 12-13) for 30 minutes prior to stimulation with Tri-DAP (100 μg/ml) or medium alone. After 2 hours the cells were then stimulated with LPS (100 ng/ml—FIGS. 10 and 12), with the TLR agonist CpG (5 μg/ml—FIGS. 11 and 13) or with medium alone. Supernatants were collected after 24 hours and IL-12p40, IL-23, IL-12p70 and IL-10 concentrations were quantified by ELISA.

[2] = test system: Dendritic cells cultured from human PBMC; experiment: IL-27 and IL-10 ELISA in dendritic cells cultured from human PBMC; type: cell-based; conditions: 24 hours
Experimental: Dendritic cells cultured from human PBMC with IL-4 and GM-CSF were stimulated with TriDap (100 μg/ml), LPS (10 or 100 ng/ml), LPS and TriDAP or medium only. Supernatants were collected after 24 hours and IL-27 and IL-10 concentrations were quantified by ELISA. **P<0.01, ***P<0.001, with versus without TriDAP.

[3] = test system: experimental autoimmune encephalomyelitis (EAE) in C57BL/6 mice; experiment: EAE induced with MOG35-55/CFA and pertussis toxin, clinical score and body weight; type: in vivo
Experimental: EAE was induced in C57BL/6 mice by subcutaneous (s.c) injection with 150 μg of MOG35-55 in CFA supplemented with 4 mg/ml H37 Ra M. tuberculosis on day 0. All mice were injected intra-peritoneally (i.p) with Pertussis toxin (PT) on days 0 and 2. One group of mice were untreated and the second group were given Tri-DAP (100 μg/mouse) on day 0 in MOG/CFA emulsion and again on days 1, 2 and every 2 days thereafter. Clinical scores were assessed daily and body weights were recorded. Disease severity was graded as follows: grade 0: normal, grade 1: limp tail, grade 2: wobbly gait; grade 3: hind limb weakness; grade 4: hind limb paralysis; grade 5: tetraparalysis/death. † indicates control mice were sacrificed due to severity of EAE disease.

EBI3 mRNA = EBI3 mRNA (real time PCR) in inguinal lymph nodes 72 hours post EAE induction; type: in vivo; conditions: Tri-DAP 100 μg/mouse days 0, 1, 2, vs control mice
Experimental: EAE was induced in C57BL/6 mice by subcutaneous injection with 150 μg of MOG35-55 in CFA supplemented with 4 mg/ml H37 Ra M. tuberculosis on day 0. All mice were injected i.p with PT on days 0 and 2. One group of mice were untreated and the second group were given Tri-DAP (100 μg/mouse) given on day 0 in MOG/CFA emulsion and again on days 1 and 2. Three mice from each group were sacrificed 72 hours post EAE induction. The inguinal lymph nodes were removed and collected in Trizol. EBI3 mRNA was evaluated by real time PCR normalized to 18S rRNA. Data are shown as fold induction over naïve C57BL/6 inguinal lymph nodes (FIG. 7).

[4] = test system: IL-17-expressing and IFN-γ-expressing T cells in the brains of mice with EAE; experiment: Intracellular IFN-γ and IL-17 staining (flow cytometry) of brain mononuclear cells of EAE mice; type: in vivo; conditions: CD3+, CD3+ CD4+ and CD3+ CD4− cells; 12 days post EAE induction; PMA/ionomycin
Experimental: Mononuclear cells were isolated from the brains of control EAE or Tri-DAP treated EAE mice 12 days post EAE induction. Cells were restimulated overnight with PMA/ionomycin and incubated with Brefeldin A. Cells were stained with anti-CD3 (FIG. 4), or anti-CD3 and anti-CD4 (FIGS. 5 and 6). Cells were then fixed and permeabilized, stained intracellularly with anti-IFN-γ and anti-IL-17 and analysed by flow cytometry.

[5] = test system: Peritoneal exudate cells (PECs); experiment: TLR agonist induced cytokines (ELISA) of peritoneal exudate cells from treated mice; type: in vivo; conditions: TriDAP 100 μg/mouse/day i.p. 5 days vs PBS; LPS, CpG or Pam3Csk; 24 hours
Experimental: Mice were treated with either PBS or TriDAP (100 μg/mouse/day i.p.) for 5 days. Peritoneal exudate cells (PECs; 1×10^6/ml) were stimulated with medium alone (control), or with a Toll-like Receptor agonist selected from the following: the TLR4 agonist LPS (lipopolysaccharide) (100 ng/ml), the TLR9 agonist CpG (5 μg/ml), or the TL2 agonist Pam3Csk (500 ng/ml). Supernatants were collected after 24 hours and cytokine concentrations were quantified by ELISA.

Bone marrow derived DC = experiment: EBI3 and IL-27p28 mRNA in bone marrow derived DC stimulated with TLR agonists; type: cell-based, murine; conditions: Tri-DAP 100 μg/ml 24 hours before LPS 10 ng/ml for 6 hours
Experimental: Bone marrow derived DC (1×10^6 cell/ml) were pretreated with Tri-DAP (100 μg/ml) for 24 hours prior to stimulation with the TLR agonists LPS (10 ng/ml) and CpG (5 μg/ml), and the MOG35-55 peptide (20 μg/ml) or medium alone (control) for 6 hours. EBI3 (FIG. 8 (a)) and IL-27p28 (FIG. 8 (b)) mRNA were evaluated by real time PCR normalized to 18S rRNA. Data are shown as fold induction over DC cultured in medium only.

[6] = Tri-DAP 100 μg/ml pretreatment, LPS 100 ng/ml or CpG 5 μg/ml, 24 hours
[7] = TriDap 100 μg/ml with LPS 10 or 100 ng/ml

For C[C@H](N)C(=O)N[C@H](CCC(=O)N[C@@H](CCC[C@@H](N)C(=O)O)C(=O)O)C(=O)O [Tri-DAP, L-alanyl-γ-D-glutamyl-meso-diaminopimelic acid], the “MOG-specific T cell responses (IL-17, IFN-γ, TNF-α)” value ([1]; 100 μg Tri-DAP 6 hours before immunization, vs control EAE mice) was “significantly reduced”, the “MOG-specific T cell responses (IL-17, IFN-γ, TNF-α)” value ([1]; Tri-DAP 100 μg/mouse on days 0, 1, 2 and 4) was “no detectable” and the “LPS and CpG production of IL-12p40” value (BMDC; [6]) was “enhances”. The “LPS and CpG production of IL-12p70” value (BMDC; [6]) was “enhances”, the “LPS and CpG production of IL-23” value (BMDC; [6]) was “enhances” and the “LPS and CpG induced IL-10 production” value (BMDC; Tri-DAP 100 μg/ml, LPS 100 ng/ml or CpG 5 μg/ml, 24 hours) was “enhanced”. For the same compound, the “enhancement of LPS and CpG induced IL-10 production when p38 is inhibited” value (BMDC; p38 inhibitor SB203580 5 μM) was “completely abolished”, the “synergy of Tri-DAP with LPS or CpG (IL-12 family), dependence on p38” value (BMDC; p38 inhibitor SB203580 5 μM) was “partially dependent on p38” and the “IL-27 expression by human derived dendritic cells” value ([2]; TriDAP 100 μg/ml alone, without TLR agonist) was “express IL-27”. For the same compound, the “IL-10 production by human dendritic cells” value ([2]; TriDap 100 μg/ml alone) was “Induces”, the “IL-27 expression on co-stimulation with a Toll-like Receptor agonist” value [2, 7] was “significant enhanced” and the “TLR-induced IL-10 production by human dendritic cells” value [2, 7] was “Enhances”. For the same compound, the weight loss ([3]; C57BL/6 EAE mice, Tri-DAP 100 μg/mouse vs untreated control) was “dramatic weight loss in the control mice when compared to the Tri-DAP treated mice”, the “first clinical signs of EAE disease” value ([3]; C57BL/6 mice, Tri-DAP 100 μg/mouse day 0 in MOG/CFA emulsion, days 1, 2 and every 2 days, untreated mice 5-6 days) was 11 days post induction and the “severity of EAE disease (clinical score)” value ([3]; C57BL/6 mice, Tri-DAP 100 μg/mouse, untreated peaked at 3.5-4 by day 12) was “lower than that observed in the untreated control mice”. For the same compound, the “EBI3 gene expression in inguinal lymph nodes” value (EBI3 mRNA) was “strong fold increase”, the “IFN-γ production by brain T cells” value [4] was “suppressed” and the “IL-17 production by brain T cells” value [4] was “suppressed”. For the same compound, the “IL-10 secreted by PEC after re-stimulation with TLR agonists” value [5] was “higher concentrations”, the “TGF-beta secreted by PEC after re-stimulation with TLR agonists” value [5] was “higher concentrations” and the “LPS induced EBI3 gene expression” value (Bone marrow derived DC) was “enhancement”. The “LPS induced IL-27p28 gene expression” value (Bone marrow derived DC) was “enhancement”.
